According to patent publication US11390609B2, “Rho-associated protein kinase inhibitor, pharmaceutical composition comprising same, and preparation method and use thereof” (BEIJING TIDE PHARMACEUTICAL CO., LTD., priority 2017, dated 2022):

Tests used:
[1] = biological target: ROCK1 (Homo sapiens (Human), UniProt Q13464); test: ROCK1 kinase IC50 assay (biological test method similar to the ROCK2 assay); assay type: biochemical
Summary of the method: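 Compound dilution series (9 concentrations, top solution 10000 nM, DMSO-containing buffer) incubated 2 h at room temperature with kinase, STK-S2 substrate and ATP (5× working solutions of 1.5 µM each). Phosphorylation detected by HTRF (665/615 nm emission ratio) after 1 h; inhibition relative to full-reaction and kinase-free wells, fitted for IC50.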

[2] = biological target: ROCK2 (Homo sapiens, UniProt O75116); test: ROCK2 kinase IC50 assay (CISBIO HTRF KinEASE-STK S2 kit); assay type: biochemical; settings: incubated at room temperature for 2 hours
Summary of the method: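 HTRF KinEASE-STK S2 format with recombinant ROCK2 (1.4 ng per well), STK-S2 substrate and ATP from 5× working solutions of 1.5 μM each, run 2 h at room temperature. Nine-point dilutions from 10000 nM top concentration; 665/615 nm emission ratio normalised to no-compound and no-kinase controls, curve-fitted for IC50.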

ROCK1, sequence (Q13464 whole entry, species assumed): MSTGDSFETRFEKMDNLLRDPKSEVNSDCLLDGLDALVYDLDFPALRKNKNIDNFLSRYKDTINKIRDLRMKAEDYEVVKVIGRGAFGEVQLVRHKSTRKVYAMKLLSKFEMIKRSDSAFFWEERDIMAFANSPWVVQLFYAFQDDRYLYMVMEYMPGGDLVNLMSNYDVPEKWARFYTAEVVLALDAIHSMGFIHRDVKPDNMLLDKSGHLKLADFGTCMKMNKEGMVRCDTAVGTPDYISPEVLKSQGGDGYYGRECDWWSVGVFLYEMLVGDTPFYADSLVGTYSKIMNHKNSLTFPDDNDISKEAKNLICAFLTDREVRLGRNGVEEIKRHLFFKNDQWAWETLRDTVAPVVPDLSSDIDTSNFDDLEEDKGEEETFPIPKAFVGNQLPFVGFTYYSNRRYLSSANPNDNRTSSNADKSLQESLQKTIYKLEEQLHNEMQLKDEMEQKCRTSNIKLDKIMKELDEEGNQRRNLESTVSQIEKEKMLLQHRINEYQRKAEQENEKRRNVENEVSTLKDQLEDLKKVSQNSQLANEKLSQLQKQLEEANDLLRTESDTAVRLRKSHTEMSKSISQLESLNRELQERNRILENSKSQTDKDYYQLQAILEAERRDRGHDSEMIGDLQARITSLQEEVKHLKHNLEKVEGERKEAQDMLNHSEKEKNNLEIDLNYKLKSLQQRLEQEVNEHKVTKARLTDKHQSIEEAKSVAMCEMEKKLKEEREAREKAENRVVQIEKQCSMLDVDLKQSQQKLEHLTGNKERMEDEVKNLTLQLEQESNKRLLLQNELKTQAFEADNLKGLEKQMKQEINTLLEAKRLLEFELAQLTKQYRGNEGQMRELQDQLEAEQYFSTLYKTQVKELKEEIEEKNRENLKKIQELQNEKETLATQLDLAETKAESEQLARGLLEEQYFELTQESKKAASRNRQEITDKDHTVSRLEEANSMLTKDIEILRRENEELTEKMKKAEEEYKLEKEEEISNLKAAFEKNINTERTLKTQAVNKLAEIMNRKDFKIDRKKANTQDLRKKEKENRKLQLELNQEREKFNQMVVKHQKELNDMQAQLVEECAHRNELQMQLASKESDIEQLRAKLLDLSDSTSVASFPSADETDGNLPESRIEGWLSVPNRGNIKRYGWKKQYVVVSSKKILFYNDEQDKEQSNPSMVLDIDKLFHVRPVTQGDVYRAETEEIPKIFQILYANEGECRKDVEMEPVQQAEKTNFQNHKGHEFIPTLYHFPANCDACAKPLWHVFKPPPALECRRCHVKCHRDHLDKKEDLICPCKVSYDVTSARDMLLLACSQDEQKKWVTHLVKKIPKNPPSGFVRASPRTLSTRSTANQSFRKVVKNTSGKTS

Molecule | IC50 [1] [nM] | IC50 [2] [nM]
Cn1c(C(=O)N2C[C@@H](O)[C@@H](F)C2)cc2ccc(-c3nccc(Nc4ccc(-c5cn[nH]c5)cc4)n3)cc21 [TDI01520, (6-(4-((4-(1H-pyrazol-4-yl)phenyl)amino)pyrimidin-2-yl)-1-methyl-1H-indol-2-yl)((3S,4R)-3-fluoro-4-hydroxypyrrolidin-1-yl)methanone] | > 10000 | 15
O=C(N1CCN(C2COC2)CC1)N1Cc2ccc(-c3nccc(Nc4ccc(-c5cn[nH]c5)cc4)n3)cc2C1 [TDI01555, (5-(4-((4-(1H-pyrazol-4-yl)phenyl)amino)pyrimidin-2-yl)isoindolin-2-yl)(4-(oxetan-3-yl)piperazin-1-yl)methanone] | > 10000 | 140
O=C(C1CC(O)C1)N1Cc2ccc(-c3nccc(Nc4ccc(-c5cn[nH]c5)cc4)n3)cc2C1 (stereo not shown) [TDI01561, (5-(4-((4-(1H-pyrazol-4-yl)phenyl)amino)pyrimidin-2-yl)isoindolin-2-yl)(3-hydroxycyclobutyl) methanone] | > 10000 | 205
CC(=O)C1CN(C(=O)c2cc3ccc(-c4nccc(Nc5ccc(-c6cn[nH]c6)cc5)n4)cc3n2C)C1 [TDI01517, 1-(1-(6-(4-((4-(1H-pyrazol-4-yl)phenyl)amino)pyrimidin-2-yl)-1-methyl-1H-indole-2-caibonyl)azetidin-3-yl)ethan-1-one] | > 10000 | 92
N#CC1CCN(C(=O)c2cc3ccc(-c4nccc(Nc5ccc(-c6cn[nH]c6)cc5)n4)cc3[nH]2)C1 (stereo not shown) [TDI01448, 1-(6-(4-((4-(1H-pyrazol-4-yl)phenyl)amino)pyrimidin-2-yl)-1H-indole-2-carbonyl)pyrrolidine-3-carbonitrile] | 3000 | 13
O=C(O)c1cnc(-c2ccc3c(c2)CN(C(=O)C2CC(F)(F)C2)C3)nc1Nc1ccc(-c2cn[nH]c2)cc1 [TDI01567C] | > 10000 | 29
COCn1c(C(=O)N2CC(F)(F)C2)cc2ccc(-c3nccc(Nc4ccc(-c5cn[nH]c5)cc4)n3)cc21 [TDI01920, (6-(4-((4-(1H-pyrazol-4-yl)phenyl)amino)pyrimidin-2-yl)-1-(methoxymethyl)-1H-indol-2-yl)(3,3-difluoroazetidin-1-yl)methanone] | > 10000 | 200
O=C(C1CC(F)(F)C1)N1Cc2ccc(-c3ncc(F)c(Nc4ccc5[nH]ncc5c4)n3)cc2C1 [TDI01589, (5-(4-((1H-indazol-5-yl)amino)-5-fluoropyrimidin-2-yl)isoindolin-2-yl)(3,3-difluorocyclobutyl)methnone] | > 10000 | 39
Cn1c(C(=O)N2CC(O)(C(F)(F)F)C2)cc2ccc(-c3nccc(Nc4ccc(-c5cn[nH]c5)cc4)n3)cc21 [TDI01523, (6-(4-((4-(1H-pyrazol-4-yl)phenyl)amino)pyrimidin-2-yl)-1-methyl-1H-indol-2-yl)(3-hydroxy-3-(trifluoromethyl)azetidin-1-yl)methanone] | 1890 | 86
O=C(c1cc2ccc(-c3nccc(Nc4ccc(-c5cn[nH]c5)cc4)n3)cc2[nH]1)N1CC2C(C1)C2(F)F (stereo not shown) [TDI01490, (6-(4-((4-(1H-pyrazol-4-yl)phenyl)amino)pyrimidin-2-yl)-1H-indol-2-yl)(6,6-difluoro-3-azabicyclo[3.1.0]hexan-3-yl)methanone] | 2250 | 81
CC(C)NC(=O)c1cc2ccc(-c3nc(Nc4ccc(-c5cn[nH]c5)cc4)c4occc4n3)cc2[nH]1 [TDI01864, 6-(4-((4-(1H-pyrazol-4-yl)phenyl)ami-no)furo[3,2-d]pyrimidin-2-yl)-N-isopropyl-1H-indole-2-carboxamide] | 3000 | 30
O=C(NC1CCCN(C2CCOCC2)C1)c1cc2ccc(-c3nccc(Nc4ccc5[nH]ncc5c4)n3)cc2[nH]1 (stereo not shown) [TDI01390, 6-(4-((1H-indazol-5-yl)amino)-pyrimidin-2-yl)-N-(1-(tetrahydro-2H-pyran-4-yl)piperidin-3-yl)-1H-indole-2-carboxamide] | 456 | 18
CN(C(=O)c1cc2ccc(-c3nccc(Nc4ccc(-c5cn[nH]c5)cc4)n3)cc2[nH]1)C1CCOC1 (stereo not shown) [TDI01419, 6-(4-((4-(1H-pyrazol-4-yl)phenyl)amino)pyrimidin-2-yl)-N-methyl-N-(tetrahydrofuran-3-yl)-1H-indole-2-carboxamide] | > 10000 | 385
CN1CCN(C2CCN(C(=O)c3cc4ccc(-c5nccc(Nc6ccc7[nH]ncc7c6)n5)cc4[nH]3)CC2)CC1 [TDI01319, (6-(4-((1H-indazol-5-yl)amino)-pyrimidin-2-yl)-1H-indol-2-yl)(4-(4-methyl-piperazin-1-yl)piperidin-1-yl)methanone] | > 10000 | 258
COc1cc(Nc2ccnc(-c3ccc4cc(C(=O)N5CC(F)(F)C5)n(C)c4c3)n2)ccc1-c1cn[nH]c1 [TDI01910, (3,3-difluoroazetidin-1-yl)(6-(4-((3-methoxy-4-(1H-pyrazol-4-yl)phenyl)amino)pyrimidin-2-yl)-1-methyl-1H-indol-2-yl)methanone] | > 10000 | 6
O=C(NC1CC(F)(F)C1)N1Cc2ccc(-c3nccc(Nc4ccc(-c5cn[nH]c5)cc4)n3)cc2C1 [TDI01951, 5-(4-((4-(1H-pyrazol-4-yl)phenyl)amino)pyrimidin-2-yl)-N-(3,3-difluorocyclobutyl) isoindoline-2-carboxamide] | > 10000 | 27
5-(4-((4-(1H-pyrazol-4- yl)phenyl)amino)pyrimidin- 2-yl)-N,N-diethyl-1H- indole-2-carboxamide [TDI01408] | 5630 | 400
O=C(OC1CC(F)(F)C1)N1Cc2ccc(-c3ncc(F)c(Nc4ccc5[nH]ncc5c4)n3)cc2C1 [TDI01613, 3,3-difluorocyclobutyl 5-(4-((1H-indazol-5-yl)amino)-5-fluoropyrimidin-2-yl)isoindoline-2-carboxylate] | > 10000 | 27
O=C(c1cc2ccc(-c3nccc(Nc4ccc(-c5cn[nH]c5)cc4)n3)cc2[nH]1)N1CCC2(CCN2)CC1 [TDI01464, (6-(4-((4-(1H-pyrazol-4-yl)phenyl)amino)pyrimidin-2-yl)-1H-indol-2-yl)(1,7-diazaspiro[3.5]nonan-7-yl)methanone] | 2280 | 175
O=C(c1cc2ccc(-c3nccc(Nc4ccc5[nH]ncc5c4)n3)cc2[nH]1)N1CCC2(CCNCC2)CC1 [TDI01360, (6-(4-((1H-indazol-5-yl)amino)-pyrimidin-2-yl)-1H-indol-2-yl)(3.9-diazaspiro[5.5]undecan-3-yl)methanone] | 1470 | 26
O=C(C1CC(F)(F)C1)N1CCc2cc(-c3nccc(Nc4ccc5[nH]ncc5c4)n3)ccc2C1 [TDI01683, (6-(4-((1H-indazol-5-yl)amino)pyrimidin-2-yl)-3,4-dihydroisoquinolin-2(1H)-yl)(3,3-difluorocyclobutyl)methanone] | > 10000 | 360
N#CC1CCN(C(=O)c2cc3ccc(-c4nccc(Nc5ccc(-c6cn[nH]c6)cc5)n4)cc3[nH]2)CC1 [TDI01445, 1-(6-(4-((4-(1H-pyrazol-4-yl)phenyl)amino)pyrimidin-2-yl)-1H-indole-2-carbonyl)piperidine-4-carbonitrile] | 3000 | 64
O=C(C1CC(F)(F)C1)N1CCc2ccc(-c3nccc(Nc4ccc5[nH]ncc5c4)n3)cc2C1 [TDI01575, (7-(4-((1H-indazol-5-yl)amino)pyrimidin-2-yl)-3,4-dihydroisoquinolin-2(1H)-yl)(3,3-difluorocyclobutyl) methanone] | > 10000 | 169
Cn1c(C(=O)Nc2ccncc2Cl)cc2ccc(-c3nccc(Nc4ccc5[nH]ncc5c4)n3)cc21 [TDI01841, 6-(4-((1H-indazol-5-yl)amino)-pyrimidin-2-yl)-N-(3-chloropyridin-4-yl)-1-methyl-1H-indole-2-carboxamide] | 1000 | 11
Cn1c(-c2nccs2)cc2ccc(-c3nccc(Nc4ccc(-c5cn[nH]c5)cc4)n3)cc21 [TDI01919] | 4060 | 62
O=C(c1cc2ccc(-c3nccc(Nc4ccc(-c5cn[nH]c5)cc4)n3)cc2[nH]1)N1CCC(C(F)(F)F)C1 (stereo not shown) [TDI01444, (6-(4-((4-(1H-pyrazol-4-yl)phenyl)amino)pyrimidin-2-yl)-1H-indol-2-yl)(3-(trifluoromethyl)pyrrolidin-1-yl)methanone] | 8260 | 32
Cn1c(C(=O)N2C[C@@H](O)[C@H](F)C2)cc2ccc(-c3nccc(Nc4ccc(-c5cn[nH]c5)cc4)n3)cc21 [TDI01518, (6-(4-((4-(lH-pyrazol-4-yl)phenyl)amino)pyrimidin-2-yl)-1-methyl-1H-indol-2-yl)((3R,4R)-3-fluoro-4-hydroxypyrrolidin-1-yl)methanone] | 3030 | 78
Cc1[nH]ncc1-c1ccc(Nc2ccnc(-c3ccc4cc(C(=O)N5CC(F)(F)C5)n(C)c4c3)n2)cc1 [TDI01955, (3,3-difluoroazetidin-1-yl)(1-methyl-6-(4-((4-(5-methyl-1H-pyrazol-4-yl)phenyl)amino)pyrimidin-2-yl)-1H-indol-2-yl)methanone] | > 10000 | 33
COc1cnc(-c2ccc3cc(C(=O)N(C)CC(F)(F)F)[nH]c3c2)nc1Nc1ccc(-c2cn[nH]c2)cc1 [TDI01868, 6-(4-((4-(1H-pyrazol-4-yl)phenyl)-amino)-5-methoxy-pyrimidin-2-yl)-N-methyl-N-(2,2,2-trifluoroethyl)-1H-indole-2-carboxamide] | > 10000 | 32
